Data set [1] in a line: Storage stability of clopidogrel besylate and melt granulates containing it (HPLC impurities). In kind it is physicochemical. As for the experimental part: The stability on storage of clopidogrel besylate salt (CLO.Bes) is examined in comparison to melt granulates containing it. The main degradation product is alpha-(2-chlorophenyl)-4,5,6,7-tetrahydrothieno[3,2-c]pyridine-5-acetic acid, hereinafter designated as “ImpA” (ImpA is named according to USP 29 and corresponds to the hydrolysis product of Clopidogrel). In addition, the sum of all impurities (“SumImp”) is determined. Both ImpA and SumImp are expressed as percent by weight of the amount of the clopidogrel salt at the beginning of the experiment on day 0 and are determined using the HPLC-system described below.
In the below Table 1 for example the term “10% PEG 6000” means the melt granulate consisting of 10% by weight PEG 6000 and 90% by weight clopidogrel besylate, 30% PEG 6000 means the melt granulate consisting of 30% by weight PEG 6000 and 70% by weight clopidogrel besylate, etc.
The above-mentioned HPLC system is as follows:
Column: 250 mm×4.6 mm Modulo-Cart QS Uptisphere HDO, 3 μm
Detector: UV Detector or DAD Detector
Eluent A: 0.01M sodium phosphate dibasic aqueous solution (1.78 g Na2HPO4*2H2O/l), adjusted to pH 3.0±0.05 with phosphoric acid 85%
Mobile phase: 35% Eluent A+65% Eluent B
Preparation of Reference and Sample Solutions:
Approximately 55.92 mg of clopidogrel besilate reference substance are weighed into a 50 ml volumetric flask. Add 20 ml of mobile phase and sonicate in an ultrasonic bath at ambient temperature until the substance is dissolved (approx. 5 min). Make up to the mark with mobile phase. The concentration of clopidogrel besilate is 0.75 mg/ml as free base. Two independent reference solutions are prepared.
Sample Solution for 75 mg Tablets
Weigh 10 tablets and transfer them quantitatively into a 250 ml volumetric flask. Dissolve and make up to the mark with mobile phase. Dilute 25.0 ml to 100.0 ml with mobile phase. Filter through a 0.45 μm PTFE-filter in a HPLC vial. The concentration of clopidogrel is 0.75 mg/ml as free base. Two independent sample solutions are prepared.

The nature of data set [2]: Storage stability of clopidogrel hydrochloride and melt granulates containing it (HPLC impurities). In kind it is physicochemical. The procedure: The stability on storage of clopidogrel hydrochloride salt (CLO.HCl) has been examined in comparison to melt granulates containing it. The main degradation product is alpha-(2-chlorophenyl)-4,5,6,7-tetrahydrothieno[3,2-c]pyridine-5-acetic acid, hereinafter designated as “ImpA” (impurity acid). In addition, the sum of all impurities (“SumImp”) is determined by HPLC analogously as described above for clopidogrel besylate. Both ImpA and SumImp are expressed as percent by weight of the amount of the clopidogrel salt at the beginning of the experiment on day 0. The granulates mentioned in the below Table 2 are melt granulates consisting of 50% by weight of PEG 6000 and 50% clopidogrel hydrochloride, and 50% Compritol 888 ATO and 50% clopidogrel hydrochloride, respectively.

Setting [3] is: Day 0, percent by weight of the clopidogrel salt at day 0, HPLC.
[4] abbreviates: Day 15 at 50° C. and 75% relative humidity.
Setting [5] is: Day 30 at 40° C. and 75% relative humidity.

Where a name gives a salt, the structure may show the parent alone.

The text below walks through data of patent US20090270448A1, “PHARMACEUTICAL FORMULATIONS COMPRISING CLOPIDOGREL” (ACINO PHARMA AG, priority 2006, published 2009).

On to `COC(=O)[C@H](c1ccccc1Cl)N1CCc2sccc2C1` [CLO•Bes, clopidogrel besylate], for which the “ImpA [%]” value amounted to 0.09% in data set [1] (setting [3]) and 0.34% in data set [1] (setting [4]). Further, the “SumImp [%]” value turned out to be 0.24% in data set [1] (Day 0, sum of all impurities, percent by weight of the clopidogrel salt at day 0, HPLC) and 0.52% in data set [1] (setting [4]).
In the case of `COC(=O)[C@H](c1ccccc1Cl)N1CCc2sccc2C1` [CLO•HCl, clopidogrel hydrochloride], the “SumImp [%]” value is listed as 0.58% in data set [2] (Day 0) and 1.99% in data set [2] (setting [5]). For the same compound, the “ImpA [%]” value in data set [2] (setting [3]) is listed as 0.18%; in data set [2] (setting [5]), 1.28%. Also, the “impurities relative to clopidogrel hydrochloride stabilized in the melt granulates” value in data set [2] (after storage for 30 days at 40° C. and 75% relative humidity) was “nearly twice as much impurities”.
